In patent publication US20260193227A1, “THERAPEUTIC COMPOUNDS AND METHODS” (UNIVERSITY OF IOWA RESEARCH FOUNDATION, priority 2022, published 2026):
“Also recorded” adds a separate entry of the source.

Molecular target: T1, RAD52-ssDNA interaction (Homo sapiens, UniProt P43351)
T1 construct: 6xHis; made in house
T1 sequence (P43351 1-418): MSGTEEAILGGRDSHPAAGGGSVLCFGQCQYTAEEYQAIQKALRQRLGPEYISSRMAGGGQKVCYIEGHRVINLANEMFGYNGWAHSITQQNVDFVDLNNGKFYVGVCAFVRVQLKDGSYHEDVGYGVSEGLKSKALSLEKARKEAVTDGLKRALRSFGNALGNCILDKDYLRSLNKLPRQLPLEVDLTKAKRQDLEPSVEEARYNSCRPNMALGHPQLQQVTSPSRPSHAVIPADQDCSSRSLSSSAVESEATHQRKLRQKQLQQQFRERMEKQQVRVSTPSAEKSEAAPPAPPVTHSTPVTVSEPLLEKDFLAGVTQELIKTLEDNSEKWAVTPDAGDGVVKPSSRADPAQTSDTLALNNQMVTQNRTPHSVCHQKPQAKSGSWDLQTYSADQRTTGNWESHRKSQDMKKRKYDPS
Assay: FRET-based inhibition of the RAD52-ssDNA interaction
Format: binding
Conditions: for effect on the RAD52-ssDNA complex / capacity to inhibit RAD52: FRET titration; for selectivity towards RAD52 over RPA: in vitro FRET-based assays
Description: Proteins: The 6×His-tagged human RAD52 proteins (wild type and mutants) and untagged human RPA were expressed and purified as previously described in (Hengel S R, eLife. 2016; 5; Grimme J M, et al., Nucleic Acids Res. 2010; 38(9):2917-30; and Henricksen L A, et al., The Journal of biological chemistry. 1994; 269(15):11121-32). RPA and RAD52 protein concentrations were determined by measuring absorbance at 280 nm using extinction coefficients of 88,830 M^−1 cm^−1 and 40,470 M^−1 cm^−1, respectively.
FRET-based DNA binding and inhibition assays: FRET-based that monitor the RAD52-ssDNA, RPA-ssDNA and RAD52-RPA-ssDNA binding were carried out as previously described (Hengel S R, eLife. 2016; 5; Grimme J M, et al., Nucleic Acids Res. 2010; 38(9):2917-30; and Grimme J M, Spies M. FRET-based assays to monitor DNA binding and annealing by Rad52 recombination mediator protein. Methods in molecular biology (Clifton, NJ). 2011; 745:463-83) using Cary Eclipse Spectrofluorimeter (Agilent) at 25° C., in 5 mm quartz cuvettes, and in buffer containing 30 mM Tris-Acetate (pH 7.5) and 1 mM DTT. Cy3 dye was excited at 530 nm and its emission was monitored at 565 nm. Emission of Cy5 acceptor fluorophore excited through the energy transfer from Cy3 donor is monitored at 660 nm simultaneously with emission of Cy3 dye. Both the excitation and the emission slits were set to 10 nm. All experiments were carried out using 1 nM (molecules) Cy3-dT30-Cy5 ssDNA. The optimal concentrations of the RAD52 (6 nM) and RPA (1 nM) proteins were selected by titrating the respective protein into 1 nM Cy3-dT30-Cy5 solution, and chosen based on the largest separation of the FRET values corresponding to the protein bound and free DNA.
The inhibition of the RAD52-ssDNA, RPA-ssDNA and RAD52-RPA-ssDNA complexes was evaluated by titrating each compound to the respective complex, measuring Cy3 and Cy5 fluorescence, and calculating FRET as previously described (Hengel, S. R., et al., eLife, 5).
Spectral properties of many compounds overlapped with the Cy3 and Cy5 fluorescence. To correct the calculated FRET values for the compound signal, the fluorogenic compounds were titrated into buffer and into solution of 1 nM Cy3-dT30-Cy5. For all tested compounds, the change in the signal in the Cy3 and Cy5 channels with and without Cy3/Cy5-labeled DNA present was the same. […] To account for the dye fluorescence, for each compound concentration, the apparent change in FRET of the ssDNA in the presence the compound was subtracted from the respective FRET signal of the RAD52-ssDNA, RPA-ssDNA or RAD52-ssDNA-RPA complex at the same inhibitor concentration. The IC50 values were calculated by fitting the corrected FRET data to the four-parameter dose response model using GraphPad Prism. All data are shown as average for at least three independent experiments ±standard deviation. The IC50 values are presented with their respective fitting error.

SMILES | effect on the RAD52-ssDNA complex / capacity to inhibit RAD52 | selectivity towards RAD52 over RPA (listed as Z99) | selectivity towards RAD52 over RPA (listed as Z56)
O=C(Cn1cccc([N+](=O)[O-])c1=O)c1c[nH]c2ccccc12 [Example 1] | FRET decrease | more promiscuous also inhibiting RPA; also recorded: more promiscuous, inhibited RPA in vitro | 
COc1ccccc1NS(=O)(=O)c1cc(C(=O)O)ccc1C [Example 8] | FRET decrease |  | specific to RAD52 over RPA in vitro; also recorded: shows selectivity towards RAD52 over RPA
